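These data come from cells grown in 96-well plates and exposed to compound for 48 hours at five concentrations. Abbreviation: GI50, concentration required for 50% inhibition of growth.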 The source made the active and inactive calls. No stated cut-off is given here; in the data, active = GI50 up to about 1.1 µM and inactive = higher.
How the values were obtained:
Assay in all cases: growth of human tumour cells (NCI), 48 h
[1] = system: HOP-62
[2] = system: HOP-92
[3] = system: T47D
[4] = system: NCI-H226
[5] = system: LOX IMVI
[6] = system: SF-295
[7] = system: K562
[8] = system: SN12C
[9] = system: SF-539
[10] = system: MDA-MB-435
[11] = system: CCRF-CEM
[12] = system: UACC-257
[13] = system: U-251
[14] = system: HCC 2998
[15] = system: HL-60
[16] = system: MOLT-4
[17] = system: NCI-H460
[18] = system: IGROV-1
[19] = system: KM12
[20] = system: Hs-578T
[21] = system: SK-MEL-2
[22] = system: MCF7
[23] = system: RPMI-8226
[24] = system: SF-268
[25] = system: DU-145
[26] = system: CAKI-1
[27] = system: SK-OV-3
[28] = system: HT-29
[29] = system: COLO 205
[30] = system: SNB-19
[31] = system: EKVX
[32] = system: NCI/ADR-RES
[33] = system: SW-620
[34] = system: OVCAR-4
[35] = system: NCI-H522
[36] = system: A549
[37] = system: Malme-3M
[38] = system: 786-0
[39] = system: UACC-62
[40] = system: NCI-H23
[41] = system: UO-31
[42] = system: HCT-116
[43] = system: RXF 393
[44] = system: BT-549
[45] = system: MDA-MB-231
[46] = system: OVCAR-8
[47] = system: TK-10
[48] = system: OVCAR-5
[49] = system: OVCAR-3
[50] = system: HCT-15
[51] = system: SNB-75
[52] = system: A498
[53] = system: SK-MEL-28
[54] = system: ACHN
[55] = system: PC-3
[56] = system: M14
[57] = system: SR
[58] = system: SK-MEL-5

Measured: GI50

N#Cc1cc(-c2nc3cc(F)ccc3s2)ccc1N
384 nM: [50]
active: [3] < 12 nM | [14] < 10 nM | [17] < 22.6 nM | [18] < 0.0112 µM | [19] 59 nM | [22] < 10 nM | [31] 0.253 µM | [34] 0.718 µM | [40] < 0.01 µM | [47] 0.034 µM | [48] 70.2 nM
inactive: [1] 15.3 µM | [2] 4.08 µM | [4] 3.34 µM | [5] > 100 µM | [6] 20.4 µM | [7] > 100 µM | [8] > 100 µM | [9] 13.3 µM | [10] > 78.3 µM | [11] > 100 µM | [12] > 100 µM | [13] 12.4 µM | [15] > 100 µM | [16] > 100 µM | [20] 15.8 µM | [21] 29.3 µM | [23] > 100 µM | [24] 18.1 µM | [25] 53.1 µM | [26] > 38.7 µM | [27] 20.7 µM | [28] 1.97 µM | [29] 1.8 µM | [30] 18.2 µM | [32] > 61.2 µM | [33] > 100 µM | [35] > 53.1 µM | [36] 1.84 µM | [37] > 79.1 µM | [38] 27.6 µM | [39] 14.9 µM | [41] 42 µM | [42] 9.51 µM | [43] 2.11 µM | [44] 2.3 µM | [45] 8.83 µM | [46] > 67.9 µM | [49] 19.8 µM | [51] 1.59 µM | [52] 3.39 µM | [53] > 100 µM | [54] 1.36 µM | [55] 24.7 µM | [56] 33.6 µM

c1ccc2c(c1)ccc1cc3cc(NCCCCNc4ccc5nc6c(ccc7ccccc76)cc5c4)ccc3nc12
active: [1] 0.212 µM | [3] 455 nM | [11] 0.427 µM | [13] 0.199 µM | [16] 0.184 µM | [17] 231 nM | [57] 0.0179 µM | [19] 236 nM | [22] 262 nM | [23] 0.323 µM | [30] 0.352 µM | [33] 0.195 µM | [38] 0.291 µM | [42] 0.176 µM | [45] 0.154 µM | [46] 0.167 µM | [48] 261 nM
701 nM: [50]
inactive: [2] 1.58 µM | [4] 1.73 µM | [5] 1.71 µM | [6] 1.38 µM | [7] 1.63 µM | [8] 1.41 µM | [9] 1.35 µM | [10] 1.83 µM | [12] 1.72 µM | [18] 1.41 µM | [20] 1.96 µM | [21] 1.91 µM | [58] 1.32 µM | [24] 1.82 µM | [25] 1.29 µM | [26] 2.01 µM | [27] 2.37 µM | [28] 2.61 µM | [29] 1.69 µM | [31] 2.03 µM | [32] 2.11 µM | [34] 2.22 µM | [35] 1.91 µM | [36] 1.51 µM | [37] 1.55 µM | [39] 1.67 µM | [40] 2 µM | [41] 1.21 µM | [43] 1.58 µM | [44] 2 µM | [47] 1.64 µM | [49] 1.99 µM | [51] 1.91 µM | [52] 1.17 µM | [53] 2.1 µM | [54] 1.39 µM | [55] 1.31 µM | [56] 1.72 µM

O=C(CSCC(=O)N/N=C\c1cc(Br)cc(Br)c1O)N/N=C\c1cc(Br)cc(Br)c1O
inactive: [1] 29.9 µM | [2] 19.5 µM | [3] 32100 nM | [4] 17.7 µM | [5] 6.68 µM | [6] 33.6 µM | [7] 21.9 µM | [8] 27.8 µM | [9] 20 µM | [10] 40.9 µM | [12] 23.5 µM | [13] 4.28 µM | [16] 13 µM | [17] 44600 nM | [57] 15 µM | [18] 16.6 µM | [19] 25400 nM | [20] 16.1 µM | [21] 9.55 µM | [58] 25 µM | [22] 44800 nM | [24] 11.3 µM | [25] 62.4 µM | [26] 23.4 µM | [27] 53.5 µM | [28] 39.6 µM | [29] 33.7 µM | [30] 65.6 µM | [31] 37.1 µM | [32] 29.4 µM | [33] 37 µM | [34] 14.4 µM | [35] 11.7 µM | [36] 76.6 µM | [37] 14.4 µM | [38] 32.5 µM | [39] 18 µM | [40] 48.4 µM | [41] 15.7 µM | [42] 19.6 µM | [43] 83.9 µM | [44] 37.4 µM | [46] 18.9 µM | [47] 15.6 µM | [48] > 100000 nM | [49] 17.6 µM | [51] 24 µM | [53] 26.4 µM | [54] 12.9 µM | [55] 23.7 µM | [56] 11.6 µM
22500 nM: [50]

— ChEMBL document CHEMBL1201862, “PubChem BioAssay data set” (2004)
